The source of these data is US20190069552A1, “METHOD TO CONTROL PYRIMETHANIL TOLERANT FUNGI” (Janssen Pharmaceutica NV, priority 2016, published 2019).

The structures appear in SMILES notation.

Test [1] deals with Penicillium expansum strain PE110030, pyrimethanil-resistant. Description: Poison plate assay on glucose agar, strain PE110030. The format is cell-based. As for the experimental part: (§1) • Name of component (I): pyrimethanil • Name of component (II): hexanoic acid (=CH3—(CH2)n—COOH wherein n is 4) • Test setup: to each well of a 24-well microtiter plate, 2 ml of Glucose Agar (GA: 10 g glucose, 1.5 g K2HPO4, 2 g KH2PO4, 1 g (NH4)2SO4, 0.5 g MgSO4 and 12.5 g agar in 1 litre deionised water) is added. The test compounds pyrimethanil as well as an alkane carboxylic acid (II) are dissolved in DMSO at the appropriate concentration and added to the liquid agar in a 5 μl droplet each. The nutrient medium is inoculated with the test fungi by adding 2.5 µl of a spore/mycelium suspension. The microwell plates are then incubated in the dark at 20° C. and 60% relative humidity. The growth of the fungi is evaluated after two weeks, when the growth diameter of untreated controls has reached 15 mm.
(§2) After a suitable incubation period, colony diameters on the agar are measured. Percentage growth (not % effect, see below) is then calculated for each treatment by comparing the colony diameter with the diameter for untreated controls (which is 15 mm).
(§3) The effect of adding an alkane carboxylic acid of formula CH3—(CH2)n—COOH (wherein n is 4 to 7) to restore sensitivity of pyrimethanil-resistant or pyrimethanil-tolerant fungi to pyrimethanil was calculated using the Colby synergy formula (Colby S. R., Weeds (1967), 15(1), 20-22).
(§4) When a is the % growth (not the % activity) still observed under treatment with compound A alone at a given concentration and b is the % growth still observed under treatment with compound B alone at a given concentration, the expected growth exp under treatment with the combination of both compounds at the same concentrations is:
(§5) When the observed growth of the test pathogens under the combination is less than the expected growth, there is synergy.

In test [2] the test system is Penicillium expansum PE110091 (pyrimethanil-tolerant). Briefly: Treatment of fruit (curative dip, Bio-apple Elstar). In kind it is in vivo. Conditions: for % effect after 6 days (observed) / % effect after 9 days (observed): apple Elstar, curative. How it is done:
untreated apples or pears (details below), inoculated with fungal pathogens by wounding the fruits with a contaminated pricker on two spots, and incubated at 20° C. and 96% relative humidity.
Curative: fruits are first infected with a pricker and treated by dipping four hours later.
After a suitable incubation period, the diameters of the infected spots are measured with a calliper. The average diameter is calculated for all spots in the same treatment (between 14 and 40 spots per treatment, see below). Percentage effect of the treatment is then calculated by comparing the average spot diameter with the average for untreated controls.
The effect of adding an alkane carboxylic acid of formula CH3—(CH2)n—COOH (wherein n is 4 to 7) to restore sensitivity of pyrimethanil-resistant or pyrimethanil-tolerant fungi to pyrimethanil was calculated using the Limpel synergy formula (Limpel, L. E. et al. (1962) “Weed control by dimethyl tetrachloroterephthalate alone and in certain combinations”, Proceedings of the N. E. Weed Control Conference 16: 48-53). When a is the % effect obtained by compound A alone at a given concentration and b is the % effect obtained by compound B alone at a given concentration, the expected effect e of the combination of both compounds at the same concentrations is:
Pyrimethanil was added to tap water as a 40% commercially available PENBOTEC 400SC formulation to obtain a concentration of 100 ppm pyrimethanil. The alkanoic acid was added to tap water to obtain a 2000 ppm solution, or the alkanoic acid was added to the pyrimethanil composition with a concentration of 2000 ppm.
Fruit: Bio-apple “Elstar”
Pathogen: Penicillium expansum PE110091 (pyrimethanil-tolerant)
Repeats: Two wounds per fruit, 15 fruits per treatment
Evaluations: 17 March (6 days), 20 March (9 days) Average rot diameter untreated: 6 days: 21.3 mm 9 days: 36.0 mm

Test [3] relates to Penicillium expansum strain PE110048, pyrimethanil-resistant. Description: Poison plate assay on glucose agar, strain PE110048. The format is cell-based. As for the experimental part: as §1, §2, §3, §4, §5
Test [4] concerns Penicillium expansum strain PE110014, pyrimethanil-resistant. Briefly: Poison plate assay on glucose agar, strain PE110014. The format is cell-based. How it is done: as §1, §2, §3, §4, §5
Test [5] concerns Penicillium expansum strain PE110030. Description: Pyrimethanil sensitivity of strain PE110030. The format is cell-based. Conditions: strain PE110030, pyrimethanil-resistant.
Test [6] deals with Penicillium expansum PE110091. Description: Pyrimethanil sensitivity of strain PE110091. The format is cell-based. The conditions noted are these: strain PE110091, pyrimethanil-tolerant.
In test [7] the test system is Penicillium expansum strain PE110014. Briefly: Pyrimethanil sensitivity of strain PE110014. The format is cell-based. Conditions: strain PE110014, pyrimethanil-resistant.
In test [8] the test system is Penicillium expansum PE110101. Description: Pyrimethanil sensitivity of strain PE110101. The format is cell-based. The conditions noted are these: strain PE110101, pyrimethanil-sensitive.
The test system of test [9] is Penicillium expansum strain PE110048. Description: Pyrimethanil sensitivity of strain PE110048. Conditions: strain PE110048, pyrimethanil-resistant. In kind it is cell-based.
The mark [10] stands for this setting: hexanoic acid alone at 250, 500 and 750 ppm.
[11] abbreviates: pyrimethanil 10 ppm alone, two weeks.
Setting [12] is: pyrimethanil 100 ppm alone (PENBOTEC 400SC).

With `CCCCCC(=O)O` [hexanoic acid], the “% growth (observed)” value in test [1] (hexanoic acid 250 ppm alone), in test [1] (hexanoic acid 500 ppm alone), in test [1] (hexanoic acid 750 ppm alone), in test [3] (hexanoic acid 250 ppm alone), in test [3] (hexanoic acid 500 ppm alone) and in test [3] (hexanoic acid 750 ppm alone) was 100% in each case. In addition, the “% growth (observed)” value in [4] (hexanoic acid 250 ppm alone), in test [4] (hexanoic acid 500 ppm alone) and in test [4] (hexanoic acid 750 ppm alone) was 100% each time. Moreover, the “fungicidal effect (in words)” value in test [1] (setting [10]) is “no fungicidal effect”; in test [2] (PE110091 on apple, hexanoic acid alone at 2000 ppm), “little fungicidal effect”; in test [3] (setting [10]), “no fungicidal effect”; in [4] (setting [10]), “no fungicidal effect”. The “% effect after 6 days (observed)” value in test [2] (hexanoic acid 2000 ppm alone) was 15%. The “% effect after 9 days (observed)” value in test [2] (hexanoic acid 2000 ppm alone) was 6%.

As to `Cc1cc(C)nc(Nc2ccccc2)n1` [pyrimethanil, 4,6-dimethyl-N-phenyl-2-pyrimidinamine], the “% growth (observed)” value in [1] (setting [11]) amounted to 80%; in test [3] (setting [11]), 53%; in test [4] (setting [11]), 67%. Further, the EC50 is listed as 16.38 ppm in test [5]; 5.01 ppm in [6]; 15.40 ppm in [7]; 0.29 ppm in test [8]; 22.39 ppm in test [9]. Moreover, the EC95 in [5] is over 100 ppm; in test [6], 74.99 ppm; in test [7] it was over 100 ppm; in test [8], 0.88 ppm; in [9], over 100 ppm. The “% effect after 6 days (observed)” value in [2] (setting [12]) turned out to be 19%. Also, the “% effect after 9 days (observed)” value in test [2] (setting [12]) came out at 12%.
